Results taken from ChEMBL document CHEMBL4138256, “Design, Synthesis, and Biological Activity of 1,2,3-Triazolobenzodiazepine BET Bromodomain Inhibitors” (ACS Med Chem Lett, 2017).

Tests used:
[1] = molecular target: T1, Bromodomain-containing protein 4 (Homo sapiens, UniProt O60885)
Description: Inhibition of human His-tagged Brd4 bromodomain 1 expressed in Escherichia coli BL21 (DE3) preincubated for 30 mins followed by addition of biotinylated acetyl-histone H4 peptide and measured after 1 hr by AlphaScreen assay

[2] = molecular target: T1, Bromodomain-containing protein 4; remark: listed apart in the source
Description: Inhibition of human His-tagged Brd4 bromodomain 2 expressed in Escherichia coli BL21 (DE3) preincubated for 30 mins followed by addition of biotinylated acetyl-histone H4 peptide and measured after 1 hr by AlphaScreen assay

[3] = molecular target: Bromodomain-containing protein 3 (Homo sapiens, UniProt Q15059); assay: Inhibition of human His-tagged Brd3 bromodomain 1 expressed in Escherichia coli BL21 (DE3) preincubated for 30 mins followed by addition of biotinylated acetyl-histone H4 peptide and measured after 1 hr by AlphaScreen assay
[4] = Antiproliferative activity against human MLL-AF9 cells after 72 hrs by Cell-TiterGlo assay; type: functional, cell-based; conditions: MLL-AF9, 72 h
HL-60 = assay: Antiproliferative activity against human HL60 cells after 72 hrs by Cell-TiterGlo assay; type: functional, cell-based; conditions: HL-60, 72 h
MV4-11 = assay: Antiproliferative activity against human MV4-11 cells after 72 hrs by Cell-TiterGlo assay; type: functional, cell-based; conditions: MV4-11, 72 h
DOHH-2 = assay: Antiproliferative activity against human DOHH2 cells after 72 hrs by Cell-TiterGlo assay; type: functional, cell-based; conditions: DOHH-2, 72 h
RPMI-8226 = assay: Antiproliferative activity against human RPMI8226 cells after 72 hrs by Cell-TiterGlo assay; type: functional, cell-based; conditions: RPMI-8226, 72 h
SUD4 = assay: Antiproliferative activity against human SU-DHL4 cells after 72 hrs by Cell-TiterGlo assay; type: functional, cell-based; conditions: SU-DHL-4, 72 h
CCRF-CEM = assay: Antiproliferative activity against human CCRF-CEM cells after 72 hrs by Cell-TiterGlo assay; type: functional, cell-based
Raji = assay: Antiproliferative activity against human Raji cells after 72 hrs by Cell-TiterGlo assay; type: functional, cell-based
HEL 92.1.7 = assay: Antiproliferative activity against human HEL 92.1.7 cells after 72 hrs by Cell-TiterGlo assay; type: functional, cell-based; conditions: HEL 92.1.7, 72 h
K562 = assay: Antiproliferative activity against human K562 cells after 72 hrs by Cell-TiterGlo assay; type: functional, cell-based; conditions: K562, 72 h
[5] = Antiproliferative activity against mouse 494H cells after 72 hrs by Cell-TiterGlo assay; type: functional, cell-based
[6] = Antiproliferative activity against mouse 148I cells after 72 hrs by Cell-TiterGlo assay; type: functional, cell-based
[7] = molecular target: T2, Bromodomain-containing protein 2 (Homo sapiens, UniProt P25440); assay: Inhibition of human His-tagged Brd2 bromodomain 1 expressed in Escherichia coli BL21 (DE3) preincubated for 30 mins followed by addition of biotinylated acetyl-histone H4 peptide and measured after 1 hr by AlphaScreen assay
Target sequence in this assay (P25440 whole entry): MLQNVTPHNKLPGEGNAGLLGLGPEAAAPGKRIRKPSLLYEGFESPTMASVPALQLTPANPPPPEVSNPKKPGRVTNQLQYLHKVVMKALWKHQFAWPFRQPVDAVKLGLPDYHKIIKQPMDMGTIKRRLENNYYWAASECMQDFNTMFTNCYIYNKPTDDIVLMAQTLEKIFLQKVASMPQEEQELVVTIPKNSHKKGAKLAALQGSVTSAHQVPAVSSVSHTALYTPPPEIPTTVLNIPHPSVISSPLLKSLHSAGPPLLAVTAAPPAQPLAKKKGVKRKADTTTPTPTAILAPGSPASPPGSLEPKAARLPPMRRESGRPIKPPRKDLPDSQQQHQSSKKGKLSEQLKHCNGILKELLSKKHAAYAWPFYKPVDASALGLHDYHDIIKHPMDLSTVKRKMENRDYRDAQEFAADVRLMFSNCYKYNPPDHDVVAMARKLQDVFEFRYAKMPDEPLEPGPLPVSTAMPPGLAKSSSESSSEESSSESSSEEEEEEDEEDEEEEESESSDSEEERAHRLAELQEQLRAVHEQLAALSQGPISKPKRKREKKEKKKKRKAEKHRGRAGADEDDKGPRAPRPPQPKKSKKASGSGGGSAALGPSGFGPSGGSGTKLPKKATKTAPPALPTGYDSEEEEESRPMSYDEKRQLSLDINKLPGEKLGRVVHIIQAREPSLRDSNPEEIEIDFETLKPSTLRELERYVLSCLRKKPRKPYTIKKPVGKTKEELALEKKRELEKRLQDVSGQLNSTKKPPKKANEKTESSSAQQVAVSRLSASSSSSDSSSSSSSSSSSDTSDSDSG

[8] = molecular target: T2, Bromodomain-containing protein 2; assay: Inhibition of human His-tagged Brd2 bromodomain 2 expressed in Escherichia coli BL21 (DE3) preincubated for 30 mins followed by addition of biotinylated acetyl-histone H4 peptide and measured after 1 hr by AlphaScreen assay
Target sequence in this assay (P25440 whole entry): as above

[9] = molecular target: T2, Bromodomain-containing protein 2
Target sequence in this assay (P25440 whole entry, looked up): as the sequence (P25440 whole entry) above
Description: Binding affinity to His-tagged human Brd2 bromodomain 1 (1 to 473 residues) assessed as association rate constant by suface plasmon resonance assay

[10] = molecular target: T2, Bromodomain-containing protein 2; remark: listed apart in the source
Target sequence in this assay (P25440 whole entry, looked up): as the sequence (P25440 whole entry) above
Description: Binding affinity to His-tagged human Brd2 bromodomain 2 (1 to 473 residues) assessed as association rate constant by surface plasmon resonance assay

Chain of Bromodomain-containing protein 3 (Q15059 whole entry): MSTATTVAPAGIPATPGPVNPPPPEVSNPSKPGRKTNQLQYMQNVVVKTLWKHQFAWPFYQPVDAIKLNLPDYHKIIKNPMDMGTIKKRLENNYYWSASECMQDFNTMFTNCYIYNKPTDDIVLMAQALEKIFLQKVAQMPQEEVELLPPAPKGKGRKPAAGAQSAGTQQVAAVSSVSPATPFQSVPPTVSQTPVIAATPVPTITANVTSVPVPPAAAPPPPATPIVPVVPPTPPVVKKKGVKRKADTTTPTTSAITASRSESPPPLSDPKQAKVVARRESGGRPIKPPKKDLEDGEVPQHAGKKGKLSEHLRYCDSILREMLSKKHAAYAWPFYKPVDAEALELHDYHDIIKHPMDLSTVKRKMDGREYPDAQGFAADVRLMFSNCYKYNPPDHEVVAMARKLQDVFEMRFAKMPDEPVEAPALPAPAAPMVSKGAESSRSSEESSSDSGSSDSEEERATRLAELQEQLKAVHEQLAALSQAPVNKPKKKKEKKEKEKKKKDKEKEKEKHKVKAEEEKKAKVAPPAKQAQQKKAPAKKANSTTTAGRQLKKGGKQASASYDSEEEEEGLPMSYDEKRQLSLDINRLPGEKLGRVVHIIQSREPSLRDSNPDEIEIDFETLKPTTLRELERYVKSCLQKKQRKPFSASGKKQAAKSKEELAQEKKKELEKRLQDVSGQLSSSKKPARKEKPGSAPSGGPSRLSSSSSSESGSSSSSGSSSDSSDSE

## Cc1nnn2c1-c1ccc(C(=O)NCc3ccccc3)cc1N(c1ccc(Cl)cc1)CC2
[1]
  IC50: 0.035 µM
[2]
  IC50: 0.015 µM

## Cc1nnn2c1-c1ccc(C#N)cc1N(c1ccc(Cl)cc1)CC2
[1]
  IC50: 0.011 µM
[2]
  IC50: 0.013 µM

## Cc1nnn2c1-c1ccc(C(=O)N[C@H](C)c3ccccc3)cc1N(c1ccc(Cl)cc1)CC2
[3]
  IC50: 0.013 µM

## Cc1sc2c(c1C)C(c1ccc(Cl)cc1)=NC(CC(=O)OC(C)(C)C)c1nnc(C)n1-2 (stereo not drawn)
[4]
  EC50: 0.064 µM
HL-60
  EC50: 0.051 µM
MV4-11
  EC50: 0.039 µM
DOHH-2
  EC50: 0.279 µM
RPMI-8226
  EC50: 0.258 µM
SUD4
  EC50: 0.66 µM
CCRF-CEM
  EC50: 2.04 µM
Raji
  EC50: 0.33 µM
HEL 92.1.7
  EC50: 0.18 µM
K562
  EC50: > 10 µM
[5]
  EC50: 0.122 µM
[6]
  EC50: 0.284 µM

## Cc1nnn2c1-c1ccc(C(=O)NC(c3ccccc3)c3ccccc3)cc1N(c1ccc(Cl)cc1)CC2
[7]
  IC50: 0.151 µM
[8]
  IC50: 0.044 µM
[3]
  IC50: 0.039 µM

## Cc1nnn2c1-c1ccc(-c3nn[nH]n3)cc1N(c1ccc(Cl)cc1)CC2
[1]
  IC50: 0.003 µM
[2]
  IC50: 0.002 µM

## Cc1nnn2c1-c1ccc(C(=O)NS(C)(=O)=O)cc1N(c1ccc(Cl)cc1)CC2
[1]
  IC50: 0.013 µM
[2]
  IC50: 0.007 µM

## Cc1nnn2c1-c1ccc(C(=O)N[C@@H](C)c3ccc(F)cc3)cc1N(c1ccc(Cl)cc1)CC2
[3]
  IC50: 0.023 µM

## Cc1nnn2c1-c1ccccc1N(Cc1cccc(Br)c1)CC2
[7]
  IC50: 0.129 µM
[8]
  IC50: 0.044 µM
[3]
  IC50: 0.021 µM
[1]
  IC50: 0.029 µM
[2]
  IC50: 0.017 µM

## Cc1nnn2c1-c1ccc(C(=O)O)cc1N(c1ccc(Cl)cc1)CC2
[7]
  IC50: 0.185 µM
[8]
  IC50: 0.05 µM
[3]
  IC50: 0.016 µM

## Cc1nnn2c1-c1ccc(C(=O)NS(=O)(=O)c3ccccc3)cc1N(c1ccc(Cl)cc1)CC2
[7]
  IC50: 0.054 µM
[8]
  IC50: 0.025 µM
[3]
  IC50: 0.021 µM
[1]
  IC50: 0.021 µM
[2]
  IC50: 0.01 µM

## Cc1nnn2c1-c1ccc(C(O)C(F)(F)F)cc1N(c1ccc(Cl)cc1)CC2 (stereo not drawn)
[1]
  IC50: 0.043 µM
[2]
  IC50: 0.023 µM

## Cc1nnn2c1-c1ccc(-c3cc[nH]n3)cc1N(c1ccc(Cl)cc1)CC2
[3]
  IC50: 0.01 µM
[4]
  EC50: 0.111 µM
HL-60
  EC50: 0.139 µM
MV4-11
  EC50: 0.2 µM
DOHH-2
  EC50: 0.285 µM
RPMI-8226
  EC50: 0.495 µM
SUD4
  EC50: 0.57 µM
CCRF-CEM
  EC50: 2.22 µM
Raji
  EC50: 0.78 µM
HEL 92.1.7
  EC50: 0.72 µM
K562
  EC50: > 10 µM
[5]
  EC50: 0.194 µM
[6]
  EC50: 0.973 µM
[1]
  IC50: 0.014 µM
[2]
  IC50: 0.007 µM

## Cc1nnn2c1-c1ccccc1N(c1ccc(Cl)cc1)CC2CCO (stereo not drawn)
[7]
  IC50: 0.34 µM
[8]
  IC50: 0.045 µM
[3]
  IC50: 0.044 µM
[1]
  IC50: 0.052 µM
[2]
  IC50: 0.036 µM

## Cc1nnn2c1-c1ccc(-c3ccc(N)nc3)cc1N(c1ccc(Cl)cc1)CC2
[3]
  IC50: 0.009 µM
[4]
  EC50: 0.077 µM
HL-60
  EC50: 0.152 µM
MV4-11
  EC50: 0.14 µM
DOHH-2
  EC50: 0.561 µM
RPMI-8226
  EC50: 0.631 µM
SUD4
  EC50: 0.977 µM
CCRF-CEM
  EC50: 1.36 µM
Raji
  EC50: 0.56 µM
HEL 92.1.7
  EC50: 0.4 µM
K562
  EC50: > 10 µM
[5]
  EC50: 0.166 µM
[6]
  EC50: 1.28 µM
[1]
  IC50: 0.013 µM
[2]
  IC50: 0.006 µM
[9]
  Ka: 2.9 ×10⁵ /M/s
[10]
  Ka: 2.62 ×10⁵ /M/s

## Cc1nnn2c1-c1ccccc1N(c1ccccc1)CC2
[1]
  IC50: 0.028 to 0.0394 µM
[2]
  IC50: 0.012 to 0.0215 µM

## Cc1nnn2c1-c1ccc(Cn3cccn3)cc1N(c1ccc(Cl)cc1)CC2
[3]
  IC50: 0.052 µM
[1]
  IC50: 0.045 µM
[2]
  IC50: 0.038 µM

## Cc1ccc(-c2ccc3c(c2)N(c2ccc(Cl)cc2)CCn2nnc(C)c2-3)cn1
[3]
  IC50: 0.01 µM
[1]
  IC50: 0.016 µM
[2]
  IC50: 0.007 µM

## Cc1nnn2c1-c1ccccc1N(c1ccc(Cl)cc1)C[C@@H]2C
[7]
  IC50: 0.053 µM
[8]
  IC50: 0.034 µM

## Cc1nnn2c1-c1ccccc1N(c1ccc(Cl)cc1)C[C@H]2C
[7]
  IC50: 0.038 µM
[8]
  IC50: 0.025 µM

## Cc1nnn2c1-c1ccc(C(=O)N[C@@H](C)c3ccccc3)cc1N(c1ccc(Cl)cc1)CC2
[3]
  IC50: 0.012 µM

## Cc1nnn2c1-c1ccc(C(=O)Nc3ccccc3)cc1N(c1ccc(Cl)cc1)CC2
[3]
  IC50: 0.014 µM

## Cc1nnn2c1-c1ccc(C(N)=O)cc1N(c1ccc(Cl)cc1)CC2
[1]
  IC50: 0.006 µM
[2]
  IC50: 0.002 µM

## Cc1nnn2c1-c1ccccc1N(c1ccccc1)C(=O)C2
[7]
  IC50: > 10 µM
[8]
  IC50: > 10 µM
[3]
  IC50: > 10 µM
[1]
  IC50: > 10 µM
[2]
  IC50: > 10 µM
